Laboratory results taken from patent US20200163984A1, “USE OF ISOVALERYL SPIRAMYCIN I, II AND/OR III IN MANUFACTURING MEDICAMENT FOR TREATING AND/OR PREVENTING TUMOR, AND MEDICAMENT” (SHENYANG FUYANG PHARMACEUTICAL TECHNOLOGY CO., LTD., priority 2017, published 2020).

Legend:
[1] = test system: transplanted tumor of human lymphoma cell U937; test: U937 transplanted tumor in nude mice; conditions: for Tumor Volume (mm3) (d 1): d1
Method: (§1) U937 cells in a logarithmic growth phase were taken and subjected to a trypan blue exclusion experiment showing that the cell viability was more than 95%, then the cells were subjected to trypsinization, centrifugation, and supernatant removal. Then cell concentration was adjusted to 1×10^7/ml with matrigel, then each nude mouse was inoculated subcutaneously with 0.2 ml of cells at its right armpit and recorded as the first day of inoculation. When the tumor grows to be greater than or equal to 100 mm^3, the mice were randomly divided into 11 groups with 6 mice in each group: a model group, a cyclophosphamide group, isovaleryl spiramycin I groups with doses of 25, 50 and 100 mg/kg, isovaleryl spiramycin II groups with doses of 25, 50 and 100 mg/kg, and isovaleryl spiramycin III groups with doses of 25, 50 and 100 mg/kg. Each group was continuously administered intragastrically for 30 days with a dose of 20 ml/kg. The mice were sacrificed the next day after drug withdrawal and the indicators were tested. The long diameter and short diameter of the tumor, and the body weight of each mouse were recorded every 3 days from drug administration to nude mouse sacrifice.
(§2) The body weight of the nude mice and the long diameter (a) and short diameter (b) of the transplanted tumor were measured every 3 days, and the tumor volume (v), relative tumor volume (RTV) and relative tumor proliferation rate (T/C) are calculated respectively according to the following formulas, wherein V=a×b^2/2; RTV=V/V0 (V0 is the tumor volume before administration, V is the tumor volume before sacrifice), and T/C (%)=treatment group RTV/model control group RTV×100%.
(§3) Each mouse was weighed and sacrificed. After the tumor was completely stripped off from the body of the mouse, the non-tumor tissues such as blood stains and fat were removed to weigh the tumor and calculate the tumor growth inhibition rate. The average tumor weight of each group of mice is used as an indicator of efficacy. Tumor growth inhibition rate (%)=(1−the average tumor weight of the treatment group/the average tumor weight of the model group)×100%.

[2] = test system: transplanted tumor of human esophageal cancer cell TE-1; test: TE-1 transplanted tumor in nude mice
Method: as §1, with “Then” for “U937 cells in a logarithmic growth phase were taken and subjected to a trypan blue exclusion experiment showing that the cell viability was more than 95%, then the cells were subjected to trypsinization, centrifugation, and supernatant removal. Then”
as §2, §3

[3] = test system: transplanted tumor of human non-small cell lung cancer cell A549; test: A549 transplanted tumor in nude mice; conditions: for Tumor Volume (mm3) (d 1): d1
Method: as §1, with “A549” for “U937”
as §2, §3

[4] = U937, high dose (100 mg/kg in method) i.g. 30 days
[5] = U937, low dose (25 mg/kg in method) i.g. 30 days
[6] = U937, medium dose (50 mg/kg in method) i.g. 30 days
[7] = TE-1, 12.5 mg/kg (low dose) i.g. 30 days
[8] = TE-1, 25 mg/kg (medium dose) i.g. 30 days
[9] = TE-1, 50 mg/kg (high dose) i.g. 30 days
[10] = A549, high dose (100 mg/kg in method) i.g. 30 days
[11] = A549, low dose (25 mg/kg in method) i.g. 30 days
[12] = A549, medium dose (50 mg/kg in method) i.g. 30 days

## COC1C(OC(C)=O)CC(=O)OC(C)CC=CC=CC(OC2CCC(N(C)C)C(C)O2)C(C)CC(CC=O)C1OC1OC(C)C(OC2CC(C)(O)C(OC(=O)CC(C)C)C(C)O2)C(N(C)C)C1O (stereo not drawn) [Isovaleryl spiramycin II, isovaleryl spiramycin II]
[1]; [4]
  Relative Tumor Proliferation Rate (T/C): 46.09%
  tumor growth inhibition rate: 43.63%
[1]; [5]
  Relative Tumor Proliferation Rate (T/C): 74.19%
  tumor growth inhibition rate: 25.61%
[1]; U937, low, medium and high doses, P<0.05
  tumor volume and relative tumor volume compared with the model group: significantly lower
[1]; [6]
  Relative Tumor Proliferation Rate (T/C): 52.10%
  tumor growth inhibition rate: 35.44%
[1]; U937 nude mice, 12.5 mg/kg
  Inhibition Rate (%): 25.61%
  Relative Tumor Proliferation Rate (T/C): 74.19%
  Relative Tumor Volume (RTV): 12.64 ± 5.00
  Tumor Weight: 1.44 ± 0.64 g
  Tumor Volume (mm3) (d 1): 111.58 ± 23.26 mm3
  Tumor Volume (mm3) (d30): 1400.95 ± 558.82 mm3
[1]; U937 nude mice, 25 mg/kg
  Inhibition Rate (%): 35.44%
  Relative Tumor Proliferation Rate (T/C): 52.10%
  Relative Tumor Volume (RTV): 8.88 ± 2.64
  Tumor Weight: 1.25 ± 0.66 g
  Tumor Volume (mm3) (d 1): 120.21 ± 24.68 mm3
  Tumor Volume (mm3) (d30): 1117.59 ± 565.29 mm3
[1]; U937 nude mice, 50 mg/kg
  Inhibition Rate (%): 43.63%
  Relative Tumor Proliferation Rate (T/C): 46.09%
  Relative Tumor Volume (RTV): 7.85 ± 3.27
  Tumor Weight: 1.09 ± 0.62 g
  Tumor Volume (mm3) (d 1): 111.50 ± 7.03 mm3
  Tumor Volume (mm3) (d30): 885.75 ± 418.53 mm3
[1]; mouse, in vivo
  mouse weight compared with the model group: no significant changes
[1]; mouse, in vivo, 12.5 mg/kg
  Body Weight (g) (d1): 21.10 ± 0.64 g
  Body Weight (g) (d30): 20.97 ± 0.74 g
[1]; mouse, in vivo, 25 mg/kg
  Body Weight (g) (d1): 21.05 ± 0.30 g
  Body Weight (g) (d30): 21.03 ± 0.632 g
[1]; mouse, in vivo, 50 mg/kg
  Body Weight (g) (d1): 20.80 ± 0.51 g
  Body Weight (g) (d30): 21.22 ± 0.51 g
[2]; [7]
  Inhibition Rate (tumor growth inhibition rate): 24.87%
  Relative Tumor Proliferation Rate (T/C): 70.32%
  Relative Tumor Volume (RTV): 7.92 ± 6.86
  Tumor Volume (d 1): 134.33 ± 57.77 mm3
  Tumor Volume (d 30): 1027.37 ± 363.55 mm3
  Tumor Weight: 1.18 ± 0.60 g
[2]; [8]
  Inhibition Rate (tumor growth inhibition rate): 43.78%
  Relative Tumor Proliferation Rate (T/C): 50.51%
  Relative Tumor Volume (RTV): 6.99 ± 5.39
  Tumor Volume (d 1): 195.76 ± 76.95 mm3
  Tumor Volume (d 30): 1075.36 ± 720.20 mm3
  Tumor Weight: 0.88 ± 0.46 g
[2]; [9]
  Inhibition Rate (tumor growth inhibition rate): 72.48%
  Relative Tumor Proliferation Rate (T/C): 36.49%
  Relative Tumor Volume (RTV): 6.97 ± 7.85
  Tumor Volume (d 1): 143.85 ± 16.25 mm3
  Tumor Volume (d 30): 570.92 ± 293.97 mm3
  Tumor Weight: 0.43 ± 0.26 g
[2]; TE-1, low, medium and high doses, P<0.05
  tumor volume and relative tumor volume compared with the model group: significantly lower
[2]; mouse, in vivo
  mouse weight compared with the model group: no significant changes
[3]; [10]
  Relative Tumor Proliferation Rate (T/C): 39.42%
  tumor growth inhibition rate: 60.19%
[3]; [11]
  Relative Tumor Proliferation Rate (T/C): 83.41%
  tumor growth inhibition rate: 20.73%
[3]; A549, low, medium and high doses, P<0.05
  tumor volume and relative tumor volume compared with the model group: significantly lower
[3]; [12]
  Relative Tumor Proliferation Rate (T/C): 58.75%
  tumor growth inhibition rate: 31.87%
[3]; A549 nude mice, 25 mg/kg
  Inhibition Rate (%): 20.73%
  Relative Tumor Proliferation Rate (T/C): 83.41%
  Relative Tumor Volume (RTV): 13.54 ± 1.07
  Tumor Weight: 1.90 ± 0.31 g
  Tumor Volume (mm3) (d 1): 119.67 ± 7.25 mm3
  Tumor Volume (mm3) (d30): 1614.91 ± 65.26 mm3
[3]; A549 nude mice, 50 mg/kg
  Inhibition Rate (%): 31.87%
  Relative Tumor Proliferation Rate (T/C): 58.75%
  Relative Tumor Volume (RTV): 9.54 ± 2.62
  Tumor Weight: 1.63 ± 0.32 g
  Tumor Volume (mm3) (d 1): 117.96 ± 4.88 mm3
  Tumor Volume (mm3) (d30): 1129.10 ± 326.54 mm3
[3]; A549 nude mice, 100 mg/kg
  Inhibition Rate (%): 60.19%
  Relative Tumor Proliferation Rate (T/C): 47.94%
  Relative Tumor Volume (RTV): 7.78 ± 2.03
  Tumor Weight: 0.95 ± 0.42 g
  Tumor Volume (mm3) (d 1): 116.96 ± 6.56 mm3
  Tumor Volume (mm3) (d30): 917.10 ± 270.86 mm3
[3]; mouse, in vivo
  mouse weight compared with the model group: no significant changes
[3]; mouse, in vivo, 25 mg/kg
  Body Weight (g) (d1): 20.91 ± 1.07 g
  Body Weight (g) (d30): 21.32 ± 1.88 g
[3]; mouse, in vivo, 50 mg/kg
  Body Weight (g) (d1): 20.03 ± 1.88 g
  Body Weight (g) (d30): 12.92 ± 1.68 g
[3]; mouse, in vivo, 100 mg/kg
  Body Weight (g) (d1): 21.71 ± 1.94 g
  Body Weight (g) (d30): 12.42 ± 1.37 g
